Measured values reported in ChEMBL document CHEMBL4376819, “The Rise of Molecules Able To Regenerate the Central Nervous System” (J Med Chem, 2020).

Columns and labels:
[1] = Half life in mouse plasma at 10 umol/L measured up to 4 hrs by mass spectrometry; format: ADME, cell-free
[2] = Induction of neurite growth in rat hippocampal neurons incubated for 48 hrs by high content analysis; format: functional, cell-based; conditions: Hippocampal neurone
[3] = Induction of rat DRG neuron growth assessed as increase in total neurite length at 1 uM incubated for 24 hrs by […] staining based assay relative to control; format: functional
Rattus norvegicus = test: Induction of optic nerve axon regeneration in Sprague-Dawley rat model of optic nerve crush injury assessed as increase in average length of the longest regenerating axons at 100 uM administered intravitreally on day 3,7 and 10 post injury and measured on day 13 post injury by Alexa Fluor 488/CTB-488 staining based confocal microscopic analysis relative to control; format: functional
[4] = Induction of CSPG-treated C57BL/6J mouse DRG neuron growth at 25 uM incubated for 24 hrs by Alexa Fluor 488 staining based assay relative to control; format: functional
[5] = Induction of CSPG-treated human induced sensory neuron growth at 2 uM for 24 hrs by immunostaining method relative to control; format: functional

Compound: COc1ccc(O)c(C(=O)c2ccc(C(=O)O[C@@H]3CCCNC[C@H]3NC(=O)c3ccncc3)cc2)c1F
- half-life at 10 µM [1]: < 1 min

Compound: O=S(=O)(c1cccc2c(I)cccc12)N1CCCNCC1
- EC50 [2]: 74 nM

Compound: Cc1ccc(-c2nc(NCCOCCOCCN)nc(N3CCN(c4ccccn4)CC3)n2)cc1
- Activity [3]: 50%
- Activity (Rattus norvegicus): 56%

Compound: COc1ccc([C@@H]2Sc3ccccc3N(CCN(C)C)C(=O)[C@@H]2OC(C)=O)cc1 [DILTIAZEM]
- fold change (FC) [4]: 2
- fold change (FC) [5]: 1.5
